{"source": "paper PMC11990879", "about": "“Anticandidal Activity of Lipopeptides Containing an LL-37-Derived Peptide Fragment KR12” (Molecules, 2025)", "key": {"C. albicans ATCC 10231 [1]": {"test_system": "C. albicans ATCC 10231", "assay": "microbe, parasite or virus in culture", "assay_type": "cell-based, Candida albicans", "details": "C. albicans; RPMI 1640, inoculum ca. 5 × 10^3 CFU/mL, range 0.5–256 mg/L, 48 h, 25 °C, read visually, three times on three days", "description": "(§1) Fungal strains were purchased from the Polish Collection of Microorganisms (Polish Academy of Science, Wroclaw, Poland). Four reference strains of Candida (C. albicans ATCC 10231, C. glabrata ATCC 15126, C. lypolytica PCM 2680, and C. tropicalis PCM 2680) were cultured on the Dextrose Sabouraud Agar (DSA, Neogen, Lansing, MI, USA). Before performing the assays, the fungi were cultured in a Sabouraud dextrose broth (DSB, Neogen, Lansing, MI, USA) for 48 h under aerobic conditions at 25 °C. Afterward, the fungal cultures were centrifuged (2500 rpm, 10 min) and resuspended in the appropriate liquid medium for appropriate inoculums for the performed assays.\n(§2) The strains cultured described in Section 4.1 were suspended in the Roswell Park Memorial Institute 1640 Medium (RPMI, Sigma-Aldrich, St. Louis, MO, USA) at an initial inoculum of ca. 5 × 10^3 CFU/mL. The stock solutions (1024 mg/L) of tested compounds in RPMI were added to 96-well polystyrene plates and diluted serially to well no. 10, leaving wells 11 and 12 for fertility and sterility controls. The tested Candida strains were exposed to graded concentrations (range 0.5–256 mg/L) of the lipopeptides and conventional antifungals (benzalkonium chloride, fluconazole, and nystatin) for 48 h under aerobic conditions at 25 °C. After incubation, the results were read visually."}, "C. albicans ATCC 10231 [2]": {"test_system": "C. albicans ATCC 10231", "assay": "microbe, parasite or virus in culture", "assay_type": "cell-based, Candida albicans", "details": "MIC wells and two higher concentrations seeded on DSA, 48 h, 25 °C, read visually, three times", "description": "as §1, §2\n(§3) Then the results were read visually. Both MIC as well as the MFC assays were performed threetimes on three different days."}, "C. glabrata ATCC 15126 [3]": {"test_system": "C. glabrata ATCC 15126", "assay": "microbe, parasite or virus in culture", "assay_type": "cell-based, Candida glabrata", "details": "first C. glabrata column; RPMI 1640, inoculum ca. 5 × 10^3 CFU/mL, range 0.5–256 mg/L, 48 h, 25 °C, read visually, three times on three days", "description": "as §1, §2"}, "C. glabrata ATCC 15126 [4]": {"test_system": "C. glabrata ATCC 15126", "assay": "microbe, parasite or virus in culture", "assay_type": "cell-based, Candida glabrata", "details": "MIC wells and two higher concentrations seeded on DSA, 48 h, 25 °C, read visually, three times", "description": "as §1, §2, §3"}, "C. lypolytica PCM 2680 [5]": {"test_system": "C. lypolytica PCM 2680", "assay": "microbe, parasite or virus in culture", "assay_type": "cell-based, Candida lipolytica", "details": "RPMI 1640, inoculum ca. 5 × 10^3 CFU/mL, range 0.5–256 mg/L, 48 h, 25 °C, read visually, three times on three days", "description": "as §1, §2"}, "C. lypolytica PCM 2680 [6]": {"test_system": "C. lypolytica PCM 2680", "assay": "microbe, parasite or virus in culture", "assay_type": "cell-based, Candida lipolytica", "details": "MIC wells and two higher concentrations seeded on DSA, 48 h, 25 °C, read visually, three times", "description": "as §1, §2, §3"}, "C. tropicalis PCM 2680 [7]": {"test_system": "C. tropicalis PCM 2680", "assay": "microbe, parasite or virus in culture", "assay_type": "cell-based, Candida tropicalis", "details": "C. tropicalis; RPMI 1640, inoculum ca. 5 × 10^3 CFU/mL, range 0.5–256 mg/L, 48 h, 25 °C, read visually, three times on three days", "description": "as §1, §2"}, "C. tropicalis PCM 2680 [8]": {"test_system": "C. tropicalis PCM 2680", "assay": "microbe, parasite or virus in culture", "assay_type": "cell-based, Candida tropicalis", "details": "MIC wells and two higher concentrations seeded on DSA, 48 h, 25 °C, read visually, three times", "description": "as §1, §2, §3"}, "human red blood cells": {"test_system": "human red blood cells", "details": "cited from earlier work", "excerpt": "Table 2 Minimum inhibitory concentrations (MIC) and minimum fungicidal concentrations (MFC) determined for peptides and reference antifungals [g/L]. The highest antimicrobial activity is marked in green, medium values in yellow, while the weakest antifungal activity is marked in red. Minimum hemolytic concentration (MHC5%—causing hemolysis of 5% of human red blood cells) determined in previous stu | column: MHC5%"}, "[9]": {"test_system": "C. albicans biofilms cultured on polystyrene", "assay_type": "cell-based, Candida albicans", "description": "as §1\nFungal suspensions in DSB were added to the wells at initial inoculums of ca. 5 × 10^6 CFU/mL and incubated under aerobic conditions, at 25 °C for 24 h, 48 h, and 72 h, in order to grow candidal biofilms of different maturity. After the appropriate time of incubation, the wells were washed with phosphoric buffered (PBS), and fresh RPMI medium supplemented with antifungals and the lipopeptides at graded concentrations (range […]) were added. The fungal biofilms were exposed to the compounds for 24 h (aerobic conditions, 25 °C). After the exposure to antifungals, the content of the wells was aspirated and a 0.01% solution of resazurin (Sigma-Aldrich, St. Louis, MO, USA) in DSB was added. Resazurin (blue) was applied as a cell viability reagent, which upon contact with living cells is reduced to a pink resorufin. The samples with the dye were incubated for 1 h at 25 °C and the absorbance was measured at 570 and 600 nm with a microplate reader (Thermo Fisher Scientific, Waltham, MA, USA). The assays were performed four times on four different days. The results are presented as the means of the measured percentage of metabolic activity (MA) of fungi in the well when compared with positive (sample with Candida in DSB) and negative controls (pure DSB), which were taken as 100% and 0%, respectively. The MA of Candida in the samples was measured according to the following formula:MA(%) = (ΔAbs of sample − ΔAbs of negative control)/(ΔAbs of positive control − ΔAbs of negative control);(1) ΔAbs = absorbance at 570 nm − absorbance at 600 nm.(2)\nThe MBEC was taken as the lowest concentration of antifungal which allowed us to reduce the metabolism of fungal cells to 10% (or less) of the positive control."}, "[10]": {"test_system": "Candida strains (C. albicans, C. glabrata, C. lipolytica, C. tropicalis)", "assay_type": "cell-based", "description": "as §1, §2, §3"}, "[11]": {"details": "biofilms cultured on polystyrene, 24 h"}, "[12]": {"details": "biofilms cultured on polystyrene, 48 h"}, "[13]": {"details": "biofilms cultured on polystyrene, 72 h"}}, "note": "Where two headings read alike, the source gives them in different places. Marks after values point to notes of the source that are not given here. Where a SMILES comes first, the peptide text is derived from it. Where no end group is shown, it is not given here. The star is where a group is joined. Benzoyl(4-Ph) = O=C(c1ccc(-c2ccccc2)cc1)*; PhAc = O=C(Cc1ccccc1)*", "data": [{"compound": "CC[C@H](C)[C@H](NC(=O)[C@H](CCCNC(=N)N)NC(=O)[C@H](CCC(N)=O)NC(=O)[C@@H](NC(=O)[C@@H](NC(=O)[C@H](CCCNC(=N)N)NC(=O)[C@H](CCCCN)NC(=O)Cc1ccccc1)[C@@H](C)CC)C(C)C)C(=O)N[C@@H](CCCCN)C(=O)N[C@@H](CC(=O)O)C(=O)N[C@@H](Cc1ccccc1)C(=O)N[C@@H](CC(C)C)C(=O)N[C@@H](CCCNC(=N)N)C(N)=O", "note": "[XXI, Phenylacetic acid-KR12-NH2] (PhAc-KRIVQRIKDFLR-NH2)", "values": [{"measurement": "Minimum inhibitory concentration (MIC), C. albicans", "setting": "C. albicans ATCC 10231 [1]", "result": 64, "unit": "µg/mL"}, {"measurement": "Minimum fungicidal concentration (MFC), C. albicans", "setting": "C. albicans ATCC 10231 [2]", "result": 64, "unit": "µg/mL"}, {"measurement": "Minimum inhibitory concentration (MIC), C. glabrata", "setting": "C. glabrata ATCC 15126 [3]", "result": 256, "unit": "µg/mL"}, {"measurement": "Minimum fungicidal concentration (MFC), C. glabrata", "setting": "C. glabrata ATCC 15126 [4]", "result": 256, "unit": "µg/mL"}, {"measurement": "Minimum inhibitory concentration (MIC), C. lipolytica", "setting": "C. lypolytica PCM 2680 [5]", "result": 16, "unit": "µg/mL"}, {"measurement": "Minimum fungicidal concentration (MFC), C. lipolytica", "setting": "C. lypolytica PCM 2680 [6]", "result": 16, "unit": "µg/mL"}, {"measurement": "Minimum inhibitory concentration (MIC), C. tropicalis", "setting": "C. tropicalis PCM 2680 [7]", "result": 8, "unit": "µg/mL"}, {"measurement": "Minimum fungicidal concentration (MFC), C. tropicalis", "setting": "C. tropicalis PCM 2680 [8]", "result": 16, "unit": "µg/mL"}, {"measurement": "MHC5% (minimum hemolytic concentration causing hemolysis of 5% of human red blood cells)", "setting": "human red blood cells; human red blood cells, determined in previous studies, ref [13],[14]", "result": 256, "unit": "g/L"}]}, {"compound": "CC[C@H](C)[C@H](NC(=O)[C@H](CCCNC(=N)N)NC(=O)[C@H](CCC(N)=O)NC(=O)[C@@H](NC(=O)[C@@H](NC(=O)[C@H](CCCNC(=N)N)NC(=O)[C@H](CCCCN)NC(=O)c1ccc(-c2ccccc2)cc1)[C@@H](C)CC)C(C)C)C(=O)N[C@@H](CCCCN)C(=O)N[C@@H](CC(=O)O)C(=O)N[C@@H](Cc1ccccc1)C(=O)N[C@@H](CC(C)C)C(=O)N[C@@H](CCCNC(=N)N)C(N)=O", "note": "[XXV, 4-Phenylbenzoic acid-KR12-NH2] ({Benzoyl(4-Ph)}-KRIVQRIKDFLR-NH2)", "values": [{"measurement": "MBEC 24 h", "setting": "[9]; [11]", "result": ">512 * mg/L"}, {"measurement": "MBEC 48 h", "setting": "[9]; [12]", "result": ">512 * mg/L"}, {"measurement": "MBEC 72 h", "setting": "[9]; [13]", "result": ">512 * mg/L"}, {"measurement": "MIC, range over the tested strains", "setting": "[10]; 48 h", "result": "4 to 16", "unit": "µg/mL"}, {"measurement": "MHC5% (minimum hemolytic concentration causing hemolysis of 5% of human red blood cells)", "setting": "human red blood cells", "result": 32, "unit": "g/L"}]}, {"compound": "KRIVQRIKDFLR-NH2 [X, KR12-NH2]", "values": [{"measurement": "MBEC 24 h", "setting": "[9]; [11]", "result": ">512 * mg/L"}, {"measurement": "MBEC 48 h", "setting": "[9]; [12]", "result": ">512 * mg/L"}, {"measurement": "MBEC 72 h", "setting": "[9]; [13]", "result": ">512 * mg/L"}, {"measurement": "MHC5% (minimum hemolytic concentration causing hemolysis of 5% of human red blood cells)", "setting": "human red blood cells", "result": ">256 * g/L"}]}, {"compound": "benzalkonium chloride [reference compound]", "values": [{"measurement": "Minimum inhibitory concentration (MIC), C. albicans", "setting": "C. albicans ATCC 10231 [1]", "result": 2, "unit": "µg/mL"}, {"measurement": "Minimum fungicidal concentration (MFC), C. albicans", "setting": "C. albicans ATCC 10231 [2]", "result": 4, "unit": "µg/mL"}, {"measurement": "Minimum inhibitory concentration (MIC), C. glabrata", "setting": "C. glabrata ATCC 15126 [3]", "result": 1, "unit": "µg/mL"}, {"measurement": "Minimum fungicidal concentration (MFC), C. glabrata", "setting": "C. glabrata ATCC 15126 [4]", "result": 2, "unit": "µg/mL"}, {"measurement": "Minimum inhibitory concentration (MIC), C. lipolytica", "setting": "C. lypolytica PCM 2680 [5]", "result": 1, "unit": "µg/mL"}, {"measurement": "Minimum fungicidal concentration (MFC), C. lipolytica", "setting": "C. lypolytica PCM 2680 [6]", "result": 2, "unit": "µg/mL"}, {"measurement": "Minimum inhibitory concentration (MIC), C. tropicalis", "setting": "C. tropicalis PCM 2680 [7]", "result": 0.5, "unit": "µg/mL"}, {"measurement": "Minimum fungicidal concentration (MFC), C. tropicalis", "setting": "C. tropicalis PCM 2680 [8]", "result": 2, "unit": "µg/mL"}, {"measurement": "MBEC 24 h", "setting": "[9]; C. albicans biofilm cultured on polystyrene for 24 h, exposure 24 h, 25 °C, RPMI, resazurin, metabolic activity reduced to 10% or less, four times on four days", "result": 64, "unit": "mg/L"}, {"measurement": "MBEC 48 h", "setting": "[9]; C. albicans biofilm cultured on polystyrene for 48 h, exposure 24 h, 25 °C, RPMI, resazurin, metabolic activity reduced to 10% or less, four times on four days", "result": 128, "unit": "mg/L"}, {"measurement": "MBEC 72 h", "setting": "[9]; C. albicans biofilm cultured on polystyrene for 72 h, exposure 24 h, 25 °C, RPMI, resazurin, metabolic activity reduced to 10% or less, four times on four days", "result": 128, "unit": "mg/L"}, {"measurement": "Concentration effective against 48–72 h biofilms relative to MIC", "setting": "[9]; C. albicans, 48–72 h biofilms, MBEC/MIC", "result": "> 60", "unit": "times"}, {"measurement": "Concentration effective against 24 h biofilm relative to MIC", "setting": "[9]; C. albicans, 24 h biofilm, MBEC/MIC", "result": "over 30 times"}, {"measurement": "Fungicidal activity (MFC relative to MIC)", "setting": "[10]; MFCs equal to or twice as high as the corresponding MICs", "result": "fungicidal activity against all Candida strains"}]}]}
